Data from patent US20110044943A1, “Anti-Viral Compounds, Compositions, And Methods Of Use” (priority 2007, published 2011).

Assay: Replicon Assay (luciferase, ET cell line)
Assay type: cell-based, HCV
Settings: Hepatitis C virus; tested at 10 μM; inhibition of replication relative to no compound control; luciferase 48-72 hours
Source text: A cell line, ET (Huh-lucubineo-ET) was used for screening of compounds, or pharmaceutically acceptable salts or solvates, described herein for inhibition of HCV RNA dependent RNA polymerase. The ET cell line was stably transfected with RNA transcripts harboring a I389luc-ubi-neo/NS3-3′/ET; replicon with firefly luciferase-ubiquitin-neomycin phosphotransferase fusion protein and EMCV-IRES driven NS3-5B polyprotein containing the cell culture adaptive mutations (E1202G; T1280I; K1846T) (Krieger at al, 2001 and unpublished). The ET cells were grown in DMEM, supplemented with 10% fetal calf serum, 2 mM Glutamine, Penicillin (100 IU/mL)/Streptomycin (100 μg/mL), 1× nonessential amino acids, and 250 μg/mL G418 (“Geneticin”). They were all available through Life Technologies (Bethesda, Md.). The cells were plated at 0.5-1.0×10^4 cells/well in the 96 well plates and incubated for 24 hrs before adding the test compounds. […] Luciferase activity was measured 48-72 hours later by adding a lysis buffer and the substrate (Catalog number Glo-lysis buffer E2661 and Bright-Glo luciferase system E2620 Promega, Madison, Wis.). […] Under the same condition, cytotoxicity of the compounds was determined using cell proliferation reagent, WST-1 (Roche, Germany). […] EC50 and similarly TC50 values were calculated by fitting % inhibition at each concentration to the following equation: […]

Fc1cccc(-c2nc3cnn(Cc4cc(-c5ccc(Oc6ccccn6)cc5)no4)cc-3n2)c1F [Compound 217]
inhibition at 10 µM: 85.3%
